The text below walks through data of PubChem BioAssay AID1626 (SRMLSC, 2009).

A value given as a limit tells only on which side of the number the result lay.

The experiment deals with M. tuberculosis H37Rv growth inhibition. The experiment can be described thus: M. tuberculosis H37Rv growth inhibitors, H37Rv strain (AID 1626). The settings on record: for IC90: measured here: IC90 against H37Rv; for CC50: measured here: Vero cell cytotoxicity.

In general, IC90 refers to the point of the concentration-response curve where the effect stands at 90%. What is called CC50 is the concentration at which the toxic effect on the cells reaches its halfway point. A lower CC50 goes with harm at low concentration. A word on the IC50: it is the concentration at which inhibition is half-maximal.

Compound `O=C(Nc1nccs1)c1cn(-c2ccccc2)nc1-c1ccccc1` yielded an IC90 of over 100 µM and a 50% cytotoxic concentration (CC50) of over 40 µM.
Regarding `COc1ccc(/C=C2/Sc3ccc(C(=O)N4CCc5ccccc5C4)cc3NC2=O)cc1`, the IC50 is 20 µM, the IC90 is over 100 µM and the CC50 is over 40 µM.
With `Clc1ccc(-c2nnc(SCc3nc4ccccc4s3)o2)cc1`, the IC50 was 5.3 µM and the concentration for an effect of 90% (IC90) was over 100 µM.
In turn, `COc1ccc(NC(=O)c2ccc(-c3ccc([N+](=O)[O-])cc3)o2)cc1` returned an IC90 of over 100 µM.
`CC(=O)Nc1nnc(-c2ccc3c(c2)CCCC3)o1`: the IC50 is 11.9 µM, the IC90 is 23 µM and the CC50 is over 40 µM.
For `O=C(O)c1cn(-c2ccc(N3CCCC3)c(F)c2)c2c(F)c(F)c(F)cc2c1=O` the same measures were 4.59 µM, 9.57 µM and over 40 µM.
With `O=C1C(NS(=O)(=O)c2cccs2)=C(N2CCN(c3cccc(C(F)(F)F)c3)CC2)C(=O)c2ccccc21`, the IC50 was 4.12 µM, the 90% effect concentration (IC90) was found to be 7.38 µM and the 50% cytotoxic concentration (CC50) is over 40 µM.
As for `Nc1cnc(-c2ccccc2)nc1Cl`, the 50% inhibitory concentration (IC50) is 7.27 µM and the IC90 was over 100 µM.
For the compound `O=[N+]([O-])c1cccnc1N1CCC(c2cc(-c3cccc(C(F)(F)F)c3)n[nH]2)CC1`, the half-maximal inhibitory concentration (IC50) is 6.34 µM, the IC90 was 11 µM and the half-maximal cytotoxic concentration (CC50) was over 40 µM.
Take `Cc1ccc2nc(Cl)c(CNCc3ccccc3)cc2c1`: the concentration for half-maximal inhibition (IC50) was 5.64 µM and the IC90 was 14.1 µM.
In the case of `Cc1cc(=O)[nH]c(-n2nc(C)c(Oc3ccccc3O)c2C)n1`, the IC50 was 7.72 µM, the IC90 is over 100 µM and the CC50 was over 40 µM.
In turn, `COc1ccc(N2CCN(c3nc(-c4cccs4)nc4ccccc34)CC2)cc1` gave a concentration for an effect of 90% (IC90) of over 100 µM.
`Nc1ccc(-n2ccnc2)cc1`: the half-maximal inhibitory concentration (IC50) was 41 µM and the concentration for an effect of 90% (IC90) was over 100 µM.
In turn, `Cc1ccc(S(=O)(=O)CCc2nnc(NC(=O)c3ccccn3)s2)cc1` came in with a CC50 of 38 µM.
For `CCOc1ccc2nc(SCC(=O)Nc3ccc4c(c3)OCO4)sc2c1`, the IC50 was 25 µM and the IC90 was over 100 µM.
For `N#CC(C(=O)C12CC3CC(CC(C3)C1)C2)c1nc2ccccc2[nH]1` (centres undefined), the 50% inhibitory concentration (IC50) is 9.8 µM, the IC90 is over 100 µM and the CC50 was over 40 µM.
Take `CCOC(=O)N1CCN(C(=O)CSc2nnc(-c3cc(OC)cc(OC)c3)o2)CC1`: the IC50 was 2.82 µM and the 90% effect concentration (IC90) was 7.03 µM.
`Cc1cc(C)n(-c2nc(NC(C)(C)C)nc(NC(C)(C)C)n2)n1`: the IC50 was under 0.195 µM, the IC90 was found to be 21 µM and the cytotoxic concentration (CC50) is over 40 µM.
Consider `O=C(NCCc1nc2ccccc2[nH]1)/C(=C/c1ccc2c(c1)OCO2)NC(=O)c1ccc(Cl)cc1Cl`, for which the half-maximal inhibitory concentration (IC50) was 20.6 µM and the concentration for an effect of 90% (IC90) worked out at 52.9 µM.
In the case of `CCOc1ccc(NC(=O)CN2CCN(C3c4ccccc4-c4ccccc43)CC2)cc1`, the half-inhibitory concentration (IC50) was 22.2 µM, the 90% effect concentration (IC90) is over 100 µM and the cytotoxic concentration (CC50) is over 40 µM.
Compound `Nc1nc2c(s1)COc1ccccc1-2` returned a 90% effect concentration (IC90) of over 100 µM.
For the compound `Cc1nc2ccc(NC(=O)c3ccc(Br)o3)cc2s1`, the IC50 is 64.2 µM and the IC90 was over 100 µM.
The compound `Nc1cnn(Cc2ccc(F)cc2)c1` displayed a 90% effect concentration (IC90) of over 100 µM.
As for `O=C(COc1ccc(Cl)cc1)Nc1ccc(Cc2ccncc2)cc1`, the half-maximal inhibitory concentration (IC50) is 5.95 µM and the 90% effect concentration (IC90) was 12.4 µM.
In the case of `CN(C)c1ccc(N=Nc2ccccc2C(=O)OCC(=O)NCC2CCCCC2)cc1`, the IC50 is 7.74 µM and the 90% effect concentration (IC90) came to 17.2 µM.
Regarding `c1ccc(CCCN2CCN(CCOC(c3ccccc3)c3ccccc3)CC2)cc1`, the IC50 is 5.22 µM, the concentration for an effect of 90% (IC90) came to 5.82 µM and the CC50 is over 40 µM.
For `CCN(CC)CCOC(=O)c1ccc(N/C=C(/C#N)c2nc(-c3cccc(OC)c3)cs2)cc1` the same measures were 4.42 µM, 20.2 µM and 10.8 µM.
In turn, `Cn1cnnc1SCc1ccc(-c2ccc(Br)cc2)o1` registered a 90% effect concentration (IC90) of over 100 µM and a CC50 of over 40 µM.
Take `Cc1cc(C)nc(-n2nc(C)cc2Nc2ccccc2)n1`: the IC50 was 3.27 µM, the IC90 came to 13.6 µM and the CC50 was over 40 µM.
`CC(C)CCN1C(=O)c2ccc(-c3nc4ccccc4c(=O)o3)cc2C1=O`: the 50% inhibitory concentration (IC50) is 5.26 µM and the IC90 was over 100 µM.
With `Cc1ccccc1Nc1c(-c2ccccn2)nc2c(C)cccn12`, the 50% inhibitory concentration (IC50) is 20.5 µM, the IC90 is over 100 µM and the CC50 is 29 µM.
As to `N#C/C(=C(/O)CSc1nnc(Cc2cccs2)n1C1CCCCC1)c1nc2ccccc2[nH]1`, the IC90 is over 100 µM.
On to `CC(C)c1ccc(NC(=O)c2snc3ccc(Cl)cc23)cc1`, for which the 50% inhibitory concentration (IC50) was 3.89 µM, the IC90 is over 100 µM and the CC50 is over 40 µM.
As to `Cc1ccccc1NC(=O)c1ccc(OCC(=O)Nc2ccccc2F)cc1`, the concentration for half-maximal inhibition (IC50) is 76 µM and the concentration for an effect of 90% (IC90) is over 100 µM.
Regarding `Nc1ccc(N=Nc2ccccc2)cc1`, the IC90 was over 100 µM.
With `OC(CN1CCN(c2ccccn2)CC1)Cn1c2ccc(Cl)cc2c2cc(Cl)ccc21` (centres undefined), the IC50 is 2.31 µM, the 90% effect concentration (IC90) came out at 3.12 µM and the cytotoxic concentration (CC50) was 21.5 µM.
`O=C(Nc1cccnc1)c1cc2cc(Br)ccc2oc1=O` displayed a 90% effect concentration (IC90) of over 100 µM.
Consider `O=C(CNCc1ccccc1)Nc1ccc(Oc2ccccc2)cc1`, for which the half-maximal inhibitory concentration (IC50) was 13.2 µM and the concentration for an effect of 90% (IC90) was over 100 µM.
As to `CCOC(=O)COc1ccc(/C=C2/SC(=Nc3ccccc3)N(Cc3cccnc3)C2=O)cc1OC`, the concentration for half-maximal inhibition (IC50) is 10.4 µM, the concentration for an effect of 90% (IC90) is over 100 µM and the CC50 is over 40 µM.
The compound `Cc1nc(NC(=O)CSc2nnc(-c3ccc4c(c3)OCO4)o2)c(Cl)cc1Cl` displayed a 90% effect concentration (IC90) of over 100 µM.
For the compound `CN(C)CCCNc1cc(C(C)(C)C)nc2c(-c3ccccc3)cnn12`, the IC50 is 3.17 µM, the 90% effect concentration (IC90) stood at 4.9 µM and the 50% cytotoxic concentration (CC50) came to 9.79 µM.
In the case of `CCOC(=O)c1ccc(NC(=O)c2nc[nH]c2C(=O)N[C@H](C)c2ccccc2)cc1`, the half-inhibitory concentration (IC50) is 6.38 µM, the IC90 was determined as 24.6 µM and the 50% cytotoxic concentration (CC50) was 26 µM.
For `O=C1C=C(Nc2ccccc2)c2ccccc2C1=O` the same measures were 12.3 µM, 21.2 µM and 13.7 µM.
`Cc1ccc(NC(=O)CCn2cnc3ccccc3c2=O)cc1Cl`: the IC90 was over 100 µM.
Consider `O=C(OCC(=O)c1c[nH]c2ccccc12)c1cc2ccccc2cc1O`, for which the IC50 is 11.3 µM, the IC90 is over 100 µM and the half-maximal cytotoxic concentration (CC50) is over 40 µM.
On to `Cc1ccc(-c2[nH]nc(N)c2N=Nc2ccccc2C)cc1`, for which the IC50 was 5.45 µM, the IC90 came out at 8.36 µM and the half-maximal cytotoxic concentration (CC50) was over 40 µM.
In the case of `O=c1nc(/C=C/c2ccc(-c3ccc(F)cc3)o2)cc(C(F)(F)F)[nH]1`, the IC50 was 10.4 µM, the IC90 was over 100 µM and the CC50 was over 40 µM.
`COc1cc(/C=C(/C#N)C(=O)Nc2ccc(C)cc2)ccc1Oc1nc(Cl)ncc1F` displayed a CC50 of over 40 µM.
With `Cc1nc2c(-c3ccc(Cl)cc3)c(C)[nH]n2c(=O)c1Cc1ccccc1`, the IC50 is 1.98 µM, the concentration for an effect of 90% (IC90) is 9.69 µM and the CC50 is 4.04 µM.
Turning to `Nc1nc2ccccc2n1C(=O)c1ccc(F)cc1`, the IC50 is 1.93 µM, the concentration for an effect of 90% (IC90) is 4.15 µM and the CC50 was over 40 µM.
For `Cc1ccc(Cc2cnc(N3C(=N)SC(C)C3=O)s2)cc1` (centres undefined) the same measures were 3.58 µM, 18.1 µM and over 40 µM.
For `CC(=O)c1ccc(NC(=O)COC(=O)c2c3c(nc4ccccc24)/C(=C\c2cccs2)CCC3)cc1` the same measures were 0.449 µM, over 100 µM and 13.6 µM.
Regarding `O=C(Nc1ccc(-c2csnn2)cc1)C1CC1`, the concentration for an effect of 90% (IC90) was over 100 µM.
On to `Cc1cccc(OCCCCc2c(C)n[nH]c2C)c1`, for which the IC50 was 10.9 µM, the IC90 came to 15.5 µM and the half-maximal cytotoxic concentration (CC50) was over 40 µM.
For `Cc1[nH]n(-c2ccc(Cl)cc2)c(=O)c1N=Nc1cccnc1` the same measures were 3.39 µM, over 100 µM and 36.1 µM.
For `COc1ccc(Cn2c(SCc3ccccc3C)nc3cc(OC)c(OC)cc3c2=N)cc1` the same measures were 2.24 µM, 3.02 µM and 6.78 µM.
Regarding `Cc1occc1-c1nnc(SCC(=O)NCCc2ccccc2)o1`, the IC50 is 15 µM and the IC90 was over 100 µM.
For the compound `COc1ccc2nc(N=Nc3ccc(O)c4ccccc34)sc2c1`, the half-inhibitory concentration (IC50) was 5.17 µM, the IC90 amounted to 10.1 µM and the CC50 worked out at 4.6 µM.
In the same order, the values of `C(=C\c1nccc2c1[nH]c1ccccc12)/c1ccccc1` are 8.41 µM, 11.3 µM and 29.4 µM.
With `CCOCC(=O)Nc1ccc(Br)c(C)c1`, the IC50 was 9.8 µM and the IC90 was over 100 µM.
For `O=C(c1ccccc1)C1CN(Cc2ccccc2)CCC1(O)c1ccccc1` (centres undefined) the same measures were 24.8 µM and 28.2 µM.
In the case of `OCCN1CCN(CC(O)COc2ccc(C34CC5CC(CC(C5)C3)C4)cc2)CC1` (centres undefined), the 50% inhibitory concentration (IC50) was 9.56 µM, the 90% effect concentration (IC90) is 15.2 µM and the 50% cytotoxic concentration (CC50) is 9.85 µM.
For `COc1ccc(OC)c(C2C3=C(N=c4s/c(=C\c5cccc(O)c5)c(=O)n42)c2ccccc2CC3)c1` (centres undefined) the same measures were 11.1 µM, over 100 µM and 19.9 µM.
With `CCC(=O)Nc1nc2ccccc2n1Cc1ccccc1C`, the IC50 was 1.47 µM, the 90% effect concentration (IC90) was over 100 µM and the 50% cytotoxic concentration (CC50) was over 40 µM.
For `Cc1c(C(=O)Nc2nc3ccccc3[nH]2)oc2ccccc12` the same measures were 1.29 µM, 4.5 µM and over 40 µM.
As for `CCc1nc(NCc2ccc3c(c2)OCO3)c2oc3ccccc3c2n1`, the IC50 was 8.85 µM, the IC90 is 17 µM and the cytotoxic concentration (CC50) is over 40 µM.
For `CC(C)N=c1cc2n(-c3ccc(Cl)cc3)c3ccccc3nc-2cc1Nc1ccc(Cl)cc1` the same measures were under 0.391 µM, under 0.391 µM and over 40 µM.
